Laboratory results published in ChEMBL document CHEMBL2062405, “Alkaloids from the root of Isatis indigotica” (J Nat Prod, 2012).
Calls of active or inactive are those of the source. The calls are words filed in the database; no cut-off is given here.

Assays:
[1] = test system: Human immunodeficiency virus 1; experiment: Antiviral activity against HIV1 infected in 293T cells cotransfected with VSV-G at 10 uM after 48 hrs by ELISA; type: functional, organism-based
BGC-823 = experiment: Cytotoxicity against human BGC823 cells at 10 uM after 96 hrs by MTT assay; type: functional, cell-based
Human alphaherpesvirus 1 = experiment: Antiviral activity against Herpes simplex virus 1 at 10 uM; type: functional, organism-based
Bel-7402 = experiment: Cytotoxicity against human Bel7402 cells at 10 uM after 96 hrs by MTT assay; type: functional, cell-based
KETR3 = experiment: Cytotoxicity against human Ketr3 cells at 10 uM after 96 hrs by MTT assay; type: functional, cell-based
HCT-8 = experiment: Cytotoxicity against human HCT8 cells at 10 uM after 96 hrs by MTT assay; type: functional, cell-based
MCF7 = experiment: Cytotoxicity against human MCF7 cells at 10 uM after 96 hrs by MTT assay; type: functional, cell-based
A549 = experiment: Cytotoxicity against human A549 cells at 10 uM after 96 hrs by MTT assay; type: functional, cell-based
[2] = Hepatoprotective activity in rat WB-F344 cells assessed as inhibition of DL-Galactosamine-induced toxicity at 10 uM incubated for 1 hr prior to DL-Galactosamine-challenge measured after 24 hrs by MTT assay; type: functional

Structure (SMILES)	Activity [1]	Activity (BGC-823)	Activity (Human alphaherpesvirus 1)	Activity (Bel-7402)	Activity (KETR3)	Activity (HCT-8)	Activity (MCF7)	Activity (A549)	inhibition at 10 µM [2]
N#C/C=C1/C(=O)Nc2cccc(O)c21	inactive	inactive	inactive	inactive	inactive	inactive	inactive	inactive	–
Oc1ccc2[nH]c(O)cc2c1	inactive	inactive	inactive	inactive	inactive	inactive	inactive	inactive	–
O=C1CC2(O)c3ccccc3N3C(=O)c4ccccc4N1C32 (stereo not drawn)	–	–	–	–	–	–	–	–	47%
O=C1C[C@@]2(O)c3ccccc3N3C(=O)c4ccccc4N1[C@H]32	inactive	inactive	inactive	inactive	inactive	inactive	inactive	inactive	–
Nc1ccccc1C(=O)O[C@@H]1O[C@H](CO)[C@@H](O)[C@H](O)[C@H]1O	inactive	inactive	inactive	inactive	inactive	inactive	inactive	inactive	–
O=c1cc(-c2ccc(CO)o2)c2cc(O)ccc2[nH]1	inactive	inactive	inactive	inactive	inactive	inactive	inactive	inactive	–
COc1cccc2c1[C@@](O)(CC(N)=O)C(=O)N2	inactive	inactive	inactive	inactive	inactive	inactive	inactive	inactive	–
NC(=O)C[C@H]1C(=O)Nc2cccc(O)c21	inactive	inactive	inactive	inactive	inactive	inactive	inactive	inactive	–
NC(=O)C[C@@]1(O)C(=O)Nc2ccccc21	inactive	inactive	inactive	inactive	inactive	inactive	inactive	inactive	–
O=C1O[C@H]([C@@H](O)CO)[C@@H](O)[C@@]1(O)Cc1c[nH]c2ccccc12	inactive	inactive	inactive	inactive	inactive	inactive	inactive	inactive	–
OC[C@H]1O[C@@H](Oc2c[nH]c3ccccc23)[C@H](O)[C@@H](O)[C@@H]1O	inactive	inactive	inactive	inactive	inactive	inactive	inactive	inactive	–
COC(=O)c1ccccc1NC(=O)c1c[nH]c2ccccc2c1=O	inactive	inactive	inactive	inactive	inactive	inactive	inactive	inactive	–
N#CCc1c[nH]c2ccccc12	inactive	inactive	inactive	inactive	inactive	inactive	inactive	inactive	–
N#CC[C@@]1(O)C(=O)Nc2ccccc21	inactive	inactive	inactive	inactive	inactive	inactive	inactive	inactive	–
O=C1Nc2ccccc2/C1=C1/Nc2ccccc2C1=O	inactive	inactive	inactive	inactive	inactive	inactive	inactive	inactive	–
COn1cc(CC#N)c2ccccc21	inactive	inactive	inactive	inactive	inactive	inactive	inactive	inactive	–
N#CC[C@@]1(O)C(=O)Nc2cccc(O)c21	inactive	inactive	inactive	inactive	inactive	inactive	inactive	inactive	–
O=C1C[C@]2(O)c3ccccc3N3C(=O)c4ccccc4N1[C@@H]32	inactive	inactive	inactive	inactive	inactive	inactive	inactive	inactive	–
C[C@H]1OC2=C(NC1=O)C(=O)OCC2	inactive	inactive	inactive	inactive	inactive	inactive	inactive	inactive	–
O=C1/C(=C2\Nc3ccccc3C2=O)Nc2ccccc21	inactive	inactive	inactive	inactive	inactive	inactive	inactive	inactive	–
COC(=O)c1cc(OC)c2c(c1-c1c(CO)cc(OC)c3c1OCO3)OCO2 [BICYCLOL]	–	–	–	–	–	–	–	–	42%
N#CCc1c[nH]c2cc(O[C@@H]3O[C@H](CO)[C@@H](O)[C@H](O)[C@H]3O)ccc12	inactive	inactive	inactive	inactive	inactive	inactive	inactive	inactive	–
O=C1c2ccccc2-n2c1nc1ccccc1c2=O	inactive	inactive	inactive	inactive	inactive	inactive	inactive	inactive	–
O=Cc1c[nH]c2ccccc12	inactive	inactive	inactive	inactive	inactive	inactive	inactive	inactive	–
